Results on 33 molecules are retold here after patent US9051295B2, “1-substituted indazole derivative” (Dainippon Sumitomo Pharma Co., Ltd., priority 2012, dated 2015).

Structures are written as SMILES.

The target of one experiment is T1, human α7 nAChR (Homo sapiens, UniProt P36544).
T1 construct: expressed in transfected cells; host or cells: GH4C1 cells (rat pituitary, ATCC CCL-82.2)
T1 sequence (P36544 23-502): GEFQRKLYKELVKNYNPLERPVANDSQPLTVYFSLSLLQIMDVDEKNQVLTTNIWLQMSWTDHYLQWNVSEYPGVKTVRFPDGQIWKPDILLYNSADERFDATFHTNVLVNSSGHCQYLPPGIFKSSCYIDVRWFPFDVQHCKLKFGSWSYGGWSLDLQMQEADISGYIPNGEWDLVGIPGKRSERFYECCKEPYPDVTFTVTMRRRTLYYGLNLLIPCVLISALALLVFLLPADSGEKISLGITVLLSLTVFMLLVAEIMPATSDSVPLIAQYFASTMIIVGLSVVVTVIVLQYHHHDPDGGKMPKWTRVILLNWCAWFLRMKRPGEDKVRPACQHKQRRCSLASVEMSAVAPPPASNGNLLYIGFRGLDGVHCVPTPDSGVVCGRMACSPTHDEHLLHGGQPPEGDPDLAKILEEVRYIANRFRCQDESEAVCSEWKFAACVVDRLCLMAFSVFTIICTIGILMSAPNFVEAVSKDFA
The experiment can be described thus: Evaluation of PAM activity with human α7 nACh receptor stably expressing cells (aequorin luminescence, FDSS7000, ACh EC20). The experiment is classed as cell-based. Conditions: statement on Table 8 data. The source says:
Evaluation of PAM Activity with Human α7 nACh Receptor Stably Expressing Cells
(1) Human α7 nAChR Stably Expressing Cells
Human α7 nAChR stably expressing cells were generated and cultured. In detail, GH4C1 cells derived from rat pituitary (cat#CCL-82.2, ATCC, USA) were used as a host cell. PcDNA3.1Zeo vector containing a nucleotide sequence encoding a protein GenBank BAC81731 and pcDNA3.1 vector containing human α7 nAChR gene (cat#V790-20, invitrogen, Carlsbad, Calif., USA) were transfected to the cells to give aequorins and human α7 nAChR stably expressing cells respectively. The aequorins and human α7 nAChR stably expressing cells were screened with Zeocin (cat#R25001, invitrogen, Carlsbad, Calif., USA) and Geneticin (cat#10131-027, invitrogen, Carlsbad, Calif., USA) respectively.
The cells were cultured in F-10 Nutrient Mixture (Ham) medium (cat#11550-043, invitrogen, Carlsbad, Calif., USA) containing 2.5% fetal bovine serum (cat#2917354, ICN Biomedicals, Inc, USA), 15% inactivated horse serum (cat#26050-088, invitrogen, Carlsbad, Calif., USA), 1 μg/mL Geneticin, and 5 μg/mL Puromycin (cat#14861-84, invitrogen, Carlsbad, Calif., USA), in a Collagen Type 1-coated dish (cat#4030-010, iwaki, Tokyo, Japan). During the culture, the medium was replaced with fresh medium in every 2 to 3 days, and the cells were treated with TrypLE Express (cat#45604-021, invitrogen, Carlsbad, Calif., USA) to collect them in every 7 days. Thus, the cells were subcultured.
7 Days after subculturing, the cells were treated with TrypLE Express to collect them when they were about 80% confluent. The cells were suspended in a reaction medium containing Hanks (cat#14065-056, invitrogen, Carlsbad, Calif., USA)/20 mmol/L Hepes (cat#15630-080, invitrogen, Carlsbad, Calif., USA), Buffer (pH 7.4), F-10 Nutrient Mixture (Ham), and 0.1 mg/mL Geneticin, and the suspension was seeded in a 384-well plate (cat#781090, Greiner, Germany) at 20000 cells/25 μL per well.
On the next day after seeding, Viviren (cat#E649X, Promega, Madison, Wis., USA) was added to the medium so that the final concentration could be 4 μmol/L (15 μL/well). The plates were centrifuged and then placed in the dark for 4 hours at room temperature.
(2) Preparation of the Test Samples
Each of the test compounds was dissolved in DMSO to prepare each test sample at a concentration of 1000-fold the final concentration. To the solution was added Hanks/20 mM HEPES/0.2% BSA (cat#A3803, Sigma, St. Louis, Mo., USA), and the concentration was adjusted to 6-fold the final concentration.
(3) Evaluation of PAM Activity
FDSS7000 (Hamamatsu Photonics) was used to detect the luminescence signal evoked by α7 nAChR stimulation. The cells and a luminescent substrate were put on a plate, and the test sample was added thereto. […] After the addition of ACh, the luminescence signal (the central wavelength: 465 nm) was measured for 138 seconds to calculate RLU (Max-Min). The ratio of the RLU (Max-Min) of the test-compound-containing wells to that of the control wells was defined as PAM activity.
As to `CCc1ccc2c(cnn2[C@H]2CC[C@@H](NC(=O)C3CCC(F)(F)CC3)CC2)c1` [Example 4, N-(cis-4-(5-ethyl-1H-indazol-1-yl)cyclohexyl)-4,4-difluorocyclohexanecarboxamide], the “PAM activity for α7 nAChR (in words)” value is “stronger PAM activity than others”.

Take `Cc1ccc2c(cnn2C2CCN(C(=O)NC3CCCCC3)CC2)c1` [Example 8, N-cyclohexyl-4-(5-methyl-1H-indazol-1-yl)piperidine-1-carboxamide]: the “PAM activity for α7 nAChR (in words)” value was “stronger PAM activity than others”. On the same count and under the same terms, with `Cc1ccc2c(cnn2C2CCN(C(=O)NC3CCC(F)(F)CC3)CC2)c1` [Example 13, N-(4,4-difluorocyclohexyl)-4-(5-methyl-1H-indazol-1-yl)piperidine-1-carboxamide] the entry was “stronger PAM activity than others”; with `CCOc1ccc2c(cnn2C2CCN(C(=O)NC3CCCC3)CC2)c1` [Example 17], “stronger PAM activity than others”; with `CCOc1ccc2c(cnn2C2CCN(C(=O)NC3CCCCC3)CC2)c1` [Example 18, N-cyclohexyl-4-(5-ethoxy-1H-indazol-1-yl)piperidine-1-carboxamide], “stronger PAM activity than others”. For the molecule `CCc1ccc2c(cnn2C2CCN(C(=O)NC3CCCC3)CC2)c1` [Example 20], the “PAM activity for α7 nAChR (in words)” value is reported as “stronger PAM activity than others”. The same measure, in the same setting: with `CCc1ccc2c(cnn2C2CCN(C(=O)NC3CCC(F)(F)CC3)CC2)c1` [Example 23] the entry was “stronger PAM activity than others”. For the molecule `COc1ccc2c(cnn2C2CCN(C(=O)NC3CCCCC3)CC2)c1` [Example 40], the “PAM activity for α7 nAChR (in words)” value was “stronger PAM activity than others”. For the molecule `COc1ccc2c(cnn2C2CCN(C(=O)NC3CCC(F)(F)CC3)CC2)c1` [Example 41, N-(4,4-difluorocyclohexyl)-4-(5-methoxy-1H-indazol-1-yl)piperidine-1-carboxamide], the “PAM activity for α7 nAChR (in words)” value is on record as “stronger PAM activity than others”. The same measure, in the same setting: the value for `CCc1ccc2c(cnn2[C@H]2CC[C@@H](NC(=O)C3CCCCC3)CC2)c1` [Example 119] was “stronger PAM activity than others”.

The experiment is the same for the next values; noted with them: test compound 10 μmol/L; ACh at EC20; ratio of RLU (Max-Min) of test-compound wells to control wells.
As to `CCc1ccc2c(cnn2[C@H]2CC[C@@H](NC(=O)C3CCC(F)(F)CC3)CC2)c1` [Example 4, N-(cis-4-(5-ethyl-1H-indazol-1-yl)cyclohexyl)-4,4-difluorocyclohexanecarboxamide], the “α7PAM (%) @ 10 μmol/L” value is given as 2344%. Still for that read-out and setting: the value for `CCc1ccc2c(cnn2[C@H]2CC[C@@H](NC(=O)NC3CCC(F)(F)CC3)CC2)c1` [Example 5, 1-(4,4-difluorocyclohexyl)-3-(cis-4-(5-ethyl-1H-indazol-1-yl)cyclohexyl)urea] was 1368%; that for `Cc1ccc2c(cnn2C2CCN(C(=O)NC3CCCCC3)CC2)c1` [Example 8, N-cyclohexyl-4-(5-methyl-1H-indazol-1-yl)piperidine-1-carboxamide] was 3053%. For `Cc1ccc2c(cnn2C2CCN(C(=O)NC3CCC(F)(F)CC3)CC2)c1` [Example 13, N-(4,4-difluorocyclohexyl)-4-(5-methyl-1H-indazol-1-yl)piperidine-1-carboxamide], the “α7PAM (%) @ 10 μmol/L” value turned out to be 3399%. Regarding `CCCc1ccc2c(cnn2C2CCN(C(=O)NC3CCOCC3)CC2)c1` [Example 15, 4-(5-propyl-1H-indazol-1-yl)-N-(tetrahydro-2H-pyran-4-yl)piperidine-1-carboxamide], the “α7PAM (%) @ 10 μmol/L” value was found to be 1025%. On to `CCc1ccc2c(cnn2C2CCN(C(=O)N[C@H]3CC[C@H](OC)CC3)CC2)c1` [Example 16, 4-(5-ethyl-1H-indazol-1-yl)-N-(trans-4-methoxycyclohexyl)piperidine-1-carboxamide], for which the “α7PAM (%) @ 10 μmol/L” value is reported as 1764%. The same measure, in the same setting: the value for `CCOc1ccc2c(cnn2C2CCN(C(=O)NC3CCCCC3)CC2)c1` [Example 18, N-cyclohexyl-4-(5-ethoxy-1H-indazol-1-yl)piperidine-1-carboxamide] was 6779%.

`CCc1ccc2c(cnn2C2CCN(C(=O)NC3CCCOC3)CC2)c1` (stereo not drawn) [Example 22, 4-(5-ethyl-1H-indazol-1-yl)-N-(tetrahydro-2H-pyran-3-yl)piperidine-1-carboxamide]: the “α7PAM (%) @ 10 μmol/L” value was 1425%. Regarding `CCc1ccc2c(cnn2C2CCN(C(=O)NC3CCC(F)(F)CC3)CC2)c1` [Example 23], the “α7PAM (%) @ 10 μmol/L” value is reported as 6196%.

For `CCOc1ccc2c(cnn2C2CCN(C(=O)NC3CCC(F)(F)CC3)CC2)c1` [Example 27, N-(4,4-difluorocyclohexyl)-4-(5-ethoxy-1H-indazol-1-yl)piperidine-1-carboxamide], the “α7PAM (%) @ 10 μmol/L” value is on record as 1673%.

As for `COCCCc1ccc2c(cnn2C2CCN(C(=O)N[C@H]3CC[C@H](OC)CC3)CC2)c1` [Example 32], the “α7PAM (%) @ 10 μmol/L” value was 430%. In the case of `COc1ccc2c(cnn2C2CCN(C(=O)NC3CCC(F)(F)CC3)CC2)c1` [Example 41, N-(4,4-difluorocyclohexyl)-4-(5-methoxy-1H-indazol-1-yl)piperidine-1-carboxamide], the “α7PAM (%) @ 10 μmol/L” value turned out to be 3749%. As for `Cc1ccc2c(c1)c(C)nn2C1CCN(C(=O)NC2CCC(F)(F)CC2)CC1` [Example 45, N-(4,4-difluorocyclohexyl)-4-(3,5-dimethyl-1H-indazol-1-yl)piperidine-1-carboxamide], the “α7PAM (%) @ 10 μmol/L” value is 1576%. Regarding `CC(C)Oc1ccc2c(cnn2C2CCN(C(=O)NC3CCCCC3)CC2)c1` [Example 48, N-cyclohexyl-4-(5-isopropoxy-1H-indazol-1-yl)piperidine-1-carboxamide], the “α7PAM (%) @ 10 μmol/L” value amounted to 1202%.

For the molecule `CCc1cccc2c1cnn2C1CCN(C(=O)NC2CCC(F)(F)CC2)CC1` [Example 64, N-(4,4-difluorocyclohexyl)-4-(4-ethyl-1H-indazol-1-yl)piperidine-1-carboxamide], the “α7PAM (%) @ 10 μmol/L” value is given as 1133%. Same read-out and setting: the value for `COCc1nn(C2CCN(C(=O)NC3CCCCC3)CC2)c2ccc(C)cc12` [Example 68] was 430%; that for `CCCc1ccc2c(cnn2C2CCN(C(=O)NC3CCC(OC)CC3)CC2)c1` (stereo not drawn) [Example 76] was 420%; that for `Cc1ccc2c(cnn2C2CCN(C(=O)N[C@H]3CCCCC3(F)F)CC2)c1` [Example 79, (S)—N-(2,2-difluorocyclohexyl)-4-(5-methyl-1H-indazol-1-yl)piperidine-1-carboxamide] was 1064%.

Take `Cc1ccc2c(cnn2C2CCN(C(=O)N[C@H]3CCCC3(F)F)CC2)c1` [Example 80, (S)—N-(2,2-difluorocyclopentyl)-4-(5-methyl-1H-indazol-1-yl)piperidine-1-carboxamide]: the “α7PAM (%) @ 10 μmol/L” value came to 1033%.

Turning to `Cc1ccc2c(cnn2C2CCN(C(=O)NC3CCC(OCC(F)(F)F)CC3)CC2)c1` (stereo not drawn) [Example 83], the “α7PAM (%) @ 10 μmol/L” value turned out to be 420%. On the same count and under the same terms, with `CCO[C@H]1CC[C@H](NC(=O)N2CCC(n3ncc4cc(C)ccc43)CC2)CC1` [Example 90, N-(trans-4-ethoxycyclohexyl)-4-(5-methyl-1H-indazol-1-yl)piperidine-1-carboxamide] the figure was 1467%; with `COC1CCC(NC(=O)N2CCC(n3ncc4c(Br)cccc43)CC2)CC1` (stereo not drawn) [Example 98], 89%. For the molecule `O=C(C1CCOCC1)N1CCC(n2ncc3cc(F)ccc32)CC1` [Example 104], the “α7PAM (%) @ 10 μmol/L” value is 190%. The same measure, in the same setting: with `CCc1ccc2c(cnn2C2CCN(C(=O)C3CCOCC3)CC2)c1` [Example 111] the figure was 410%; with `CCc1ccc2c(cnn2[C@H]2CC[C@@H](NC(=O)[C@H]3CC[C@H](OC)CC3)CC2)c1` [Example 122], 410%. With `CO[C@H]1CC[C@H](NC(=O)N2CCC(n3ncc4cc(-c5ccc(F)cc5)ccc43)CC2)CC1` [Example 155], the “α7PAM (%) @ 10 μmol/L” value stood at 210%. On the same count and under the same terms, with `CCOc1cccc2c1cnn2C1CCN(C(=O)N[C@H]2CC[C@@H](OC)CC2)CC1` [Example 184] the figure was 200%. As for `O=C(Nc1ccc(C(F)(F)F)nc1)N1CCC(n2ncc3cc(C4CC4)ccc32)CC1` [Example 187], the “α7PAM (%) @ 10 μmol/L” value is listed as 220%. As for `O=C(NC1CCC(F)(F)CC1)N1CCC(n2ncc3c(OC(F)F)cccc32)CC1` [Example 201], the “α7PAM (%) @ 10 μmol/L” value is given as 370%.
